# Results as given in patent US20260207564A1, “DOSAGE REGIME OF ORFORGLIPRON FOR TREATING A SUBJECT WITH TYPE 2 DIABETES (T2D), OBESITY, OR OVERWEIGHT WITH AT LEAST ONE WEIGHT RELATED COMORBIDITY” (Eli Lilly and Company, priority 2022, published 2026).
# How the values were obtained:
# [1] = Phase 2 study in obesity or overweight with at least one weight related comorbidity, 36 weeks (Example 4A); format: in vivo, human
# Source text: The primary endpoint was the percentage change in body weight from baseline to week 26, with a secondary 36-week endpoint.
# A 36-week Phase 2, multicenter, randomized, double-blind, parallel, placebo-controlled study was designed to examine the efficacy and safety of 4 dose levels of once daily administered Compound 1a, compared with once daily administered placebo in participants with obesity or overweight with at least one weight related comorbidity. A total of 272 patients were randomized 5:5:5:3:3:3:3 to once daily placebo or Compound 1a maintenance doses of 12 mg, 24 mg, 36 mg (36-1, 36-2) or 45 mg (45-1, 45-2) treatment groups. The 36 and 45 mg cohorts were subdivided in a 36 mg-1 and 36 mg-2 as well as 45 mg-1 and 45 mg-2 respectively, as different starting doses, dose escalations and dose escalation steps were investigated in these subgroup cohorts (FIG. 2). The different dose escalations were performed to assess the maintenance dose and titration steps for future trials.
# Eligible male or female participants were >18 years of age with a HbA1c<6.5% (48 mmol/mol) and a BMI of ≥30 kg/m2 or ≥27 kg/m2 and <30 kg/m2 with at least 1 of the following weight-related comorbidities: hypertension, dyslipidemia, cardiovascular disease, or obstructive sleep apnea.
# The study period included a 2-week screening/lead in period, a 36-week treatment period followed by a 2 week off-drug safety follow-up period. During the treatment period, doses were escalated for all treatment groups. The dose escalation period ranged from 0 to 16 weeks depending on dose group. The initial dose was 2 or 3 mg followed by additional escalation steps depending on assigned cohort (FIG. 2). Compound 1a or matching placebo was administered daily by oral capsule. All participants were provided healthy eating and exercise education by study personnel throughout the trial.
# The primary endpoint was percent change in body weight from baseline at week 26. Secondary endpoints included percent change in body weight from baseline at week 36, change from baseline in body weight (kg), BMI (kg/m2) and waist circumference (cm), and percentage of study participants who achieved ≥5% body weight (kg) reduction, and ≥10% body weight (kg) reduction, at week 26 and week 36. Key safety endpoints included adverse events, blood pressure, heart rate, safety laboratory measures, PK parameters, and patient-reported outcomes.
# A sample size of 270 participants was calculated to provide at least 90% power for testing superiority of Compound 1 versus placebo in the primary endpoint. The estimand used for efficacy analyses was an “efficacy estimand”, representing the average treatment effect for the randomized population if the treatment was administered as intended, thus including data from all randomized participants who received at least one dose of study drug and excluding data after permanent discontinuation of study drug. All tests of treatment effects were conducted at a 2-sided alpha level of 0.05 without adjustment for multiple comparisons, and 2-sided 95% CIs were calculated. To test efficacy of Compound 1a with adequate statistical power, for 36 mg and 45 mg the evaluation of the primary endpoint was made by pooling 2 dose escalation regimens (combining 36 mg-1 and 36 mg-2, for 36 mg, and combining 45 mg-1 and 45 mg-2, for 45 mg).
# (§1) Safety analyses were conducted by comparing safety of Compound 1a with placebo irrespective of adherence to study drug. The safety analyses were conducted using the safety analysis set, which includes all randomized participants who received at least one dose of study drug. The results were presented in summary statistics, point estimates, and 95% confidence intervals along with p-values for treatment comparisons.
# [2] = format: in vivo, human; conditions: 26 weeks, 3 mg to 45 mg QD
# Protocol: Two Phase 2 studies have evaluated the safety and efficacy of Compound 1a for the treatment of T2D and another for treatment of obesity or overweight with at least one weight related comorbidity.
# The 36 and 45 mg cohorts were subdivided in a 36 mg-1 and 36 mg-2 as well as 45 mg-1 and 45 mg-2 respectively, as different starting doses, dose escalations and dose escalation steps were investigated in these subgroup cohorts (FIG. 4).
# Eligible male or female participants were >18 years of age with T2D with a HbA1c 7.0% to 10.5% and a body mass index (BMI) of ≥23 kg/m2, treated with diet and exercise alone or with a stable dose of metformin and with a stable body weight (≤5% body weight gain and/or loss) for at least 3 months prior to screening/Visit 1.
# The study period included a 2-week screening/lead in period and a 26-week treatment period. During the treatment period, doses were escalated for all treatment groups. The dose escalation period ranged from 4 to 12 weeks depending on dose group. The initial dose was 2 or 3 mg followed by additional escalation steps depending on assigned cohort (FIG. 4). […] All participants were provided healthy eating and exercise education by study personnel throughout the trial.
# Key Safety and tolerability endpoints included the frequency of patient- and investigator-reported adverse events, rate and incidence of hypoglycaemia events (glucose <70 mg/dL [3.9 mmol/L] and ≥54 mg/dL [3.0 mmol/L], or glucose <54 mg/dL [3.0 mmol/L]), and change in safety laboratory parameters, electrocardiogram, and vital signs.
# The estimand used for efficacy analyses was an “efficacy estimand”, representing the average treatment effect for the randomized population if the treatment was administered as intended, thus including data from all randomized participants who received at least one dose of study drug and excluding data after permanent discontinuation of study drug. All tests of treatment effects were conducted at a 2-sided alpha level of 0.05 without adjustment for multiple comparisons, and 2-sided 95% CIs were calculated.
# as §1, with “OFG” for “Compound 1a”, “placebo and with dulaglutide” for “placebo”
# [3] = Phase 1 studies of clinical pharmacology, PK and PD in healthy volunteers and in participants with T2D; format: in vivo, human
# Source text: The clinical pharmacology, PK, and PD of Compound 1a were studied in 2 completed Phase 1 studies in healthy volunteers and in participants with T2D).
# [4] = after 12 weeks of treatment, 9 mg QD to 45 mg QD, people with T2D
structure (smiles),measurement,setting,value
"Cc1cc(-n2nc3c(c2-n2ccn(-c4ccc5c(cnn5C)c4F)c2=O)[C@H](C)N(C(=O)c2cc4cc([C@H]5CCOC(C)(C)C5)ccc4n2[C@@]2(c4noc(=O)[nH]4)C[C@@H]2C)CC3)cc(C)c1F [Compound 1a, 3-[(1S,2S)-1-[5-[(4S)-2,2-dimethyloxan-4-yl]-2-[(4S)-2-(4-fluoro-3,5-dimethylphenyl)-3-[3-(4-fluoro-1-methylindazol-5-yl)-2-oxoimidazol-1-yl]-4-methyl-6,7-dihydro-4H-pyrazolo[4,3-c]pyridine-5-carbonyl]indol-1-yl]-2-methylcyclopropyl]-4H-1,2,4-oxadiazol-5-one]",percentage of patients who had weight reduction of 15% or more,"[1]; 36 weeks, 45 mg",48%
same,percentage of patients who had weight reduction of 10% or more,"[1]; 36 weeks, across dose groups",47% to 75
same,percentage of patients who reported AEs,[1]; across dose groups,86% to 90.2
same,mean reduction in systolic blood pressure (SBP),"[1]; baseline to week 26, across dose groups",−4.8 to −10.5 mmHg
same,mean reduction in systolic blood pressure (SBP),"[1]; baseline to week 36, across dose groups",−6.7 to −10.5 mmHg
same,tolerability by escalation interval,[1]; dose escalated every 3 weeks compared to every 1-2 weeks,superior tolerability
same,Liver function tests compared with placebo,[1]; in vivo,not significantly increased
same,Most common TEAEs,[1]; in vivo,"GI related (nausea, vomiting, diarrhea and constipation)"
same,diastolic blood pressure (DBP) compared to placebo,[1]; in vivo,No differences were noted
same,health-related quality of life and physical activity readouts versus placebo,[1]; in vivo,greater improvements
same,most common adverse events,[1]; in vivo,"gastrointestinal, mild to moderate in severity"
same,most common events reported,[1]; in vivo,"Nausea, constipation, vomiting, diarrhea, and eructation"
same,prespecified weight and cardiometabolic measures,[1]; in vivo,improvements in all prespecified weight and cardiometabolic measures
same,mean percent weight loss compared to placebo,[1]; primary 26-week endpoint,11%
same,mean percent weight loss from baseline,[1]; primary 26-week endpoint,up to 13%
same,GI AE events by starting dose,[1]; starting dose of 3 mg versus 2 mg starting dose,higher GI AE events
same,mean percentage change in body weight from baseline,"[1]; week 26, across dose groups 12-45 mg",−8.6% to −12.6
same,HDL cholesterol versus placebo,[1]; week 36,no significant change
same,"changes in the fasting lipids (triglycerides, total cholesterol, non-HDL cholesterol, LDL and VLDL)",[1]; week 36,Benefits with Compound 1a were noted
same,mean percentage change in body weight from baseline,"[1]; week 36, across dose groups 12-45 mg",−9.4% to −14.7
same,HbA1c treatment difference vs placebo,[2],−1.7%
same,mean changes from baseline in HbA1c,[2],up to −2.1%
same,mean weight loss,[2],up to 10 kg
same,weight loss treatment difference vs placebo,[2],8 kg
same,PK of Compound 1a plasma concentration increase with dose,[3]; 9 mg QD to 45 mg QD dose range,approximately proportional to the increase of dose
same,PK profile,[3]; Phase 1 studies,appropriate for once daily oral dosing
same,most reported AEs,[3]; Phase 1 studies,"nausea, vomiting, and constipation"
same,improvements in HbA1c,[3]; [4],up to −1.4%
same,weight loss,[3]; [4],up to −5.8 kg
